Results published in US11137397B2, “Peptides for blocking IL1RAP protein-protein interaction and uses thereof for treatment of disease” (Albert Einstein College of Medicine, priority 2014, dated 2021).
No end group written: not given here.

Tests used:
THP-1 cells [1] = test: Cell morphology (cytospin, Diff-Quick staining); type: cell-based, human; conditions: THP-1 cells that remained viable after 24 hours of treatment
Experimental: FIG. 9. IL1RAP blockade changes in cell morphology of IL1RAP dependent human leukemia cells. THP1 cells were exposed to 100 μM IL1RAP peptide P2, scrambled control peptide (scrambled), peptide buffer (vehicle) or left untreated and evaluated for cell morphology.
1×10^4 THP-1 cells after treatment with peptides were rinsed with PBS and 0.1 ml of cell suspension was cytospun onto polylysine coated slides at minimum speed for 4 minutes in a cytocentrifuge (StatSpin Cytofuge). Slides were stained according to manufacturer's protocol using the Romanowsky staining Diff-Quick (IMEB) kit. Cells were imaged with an Axiovert 200M microscope (Zeiss) and Olympus SZ61 microscope.

[2] = test system: healthy bone marrow mononuclear cells (BMMNC); test: Clonogenic assay in methylcellulose, healthy BMMNC; type: cell-based; conditions: 300 μM for 4 hours, colonies scored at 14 days
Experimental: FIG. 6. […] BMMNC were exposed to scrambled peptide (scrambled), or IL1RAP peptides (P1 and P2) for 4 hours at 300 μM concentrations or left untreated (UT) and evaluated for colony formation capacity in methylcellulose. Colonies were scored at 14 days. The results are expressed as total number of colonies/5×10^4 plated cells. Error bars represent the standard deviation of two replicates.
Cell viability was assessed at the indicated time points by trypan blue staining and manual cell counts. Viable cells were plated in methylcellulose (StemCell technologies H4434, or R&D HSC002SF) at 1000 cells/ml in 6-well plates for cell lines and at 5×10^4 cells/ml for bone marrow mononuclear cells (BMMNC). Cells were incubated at 37° C. and 5% CO2. Colonies were scored after 7 days or 14 days in culture for cell lines or primary cells, respectively.

THP-1 cells [3] = test: Flow cytometric determination of cell death (Annexin V/DAPI); type: cell-based, human; conditions: 300 μM
Experimental: FIG. 8. IL1RAP blockade causes cell death of IL1RAP dependent human leukemia cells. THP1 cells were exposed to 300 μM IL1RAP peptides (P1 and P2), scrambled control peptide (scrambled), peptide buffer (vehicle) or left untreated (UT) and evaluated for cell viability determined by Annexin V/DAPI staining and flow cytometry. The results are expressed as percentage of total cells.
In order to determine viability after peptide treatment, 1×10^4 THP-1 cells were washed with PBS and mixed with pre-diluted PE-conjugated Annexin V (BD Pharmigen) and DAPI. Cells were stained at room temperature for 15 minutes and suspended in 0.2 ml of Annexin V-FLUOS incubation buffer (Roche) for analysis.

inhibitory effects on healthy control bone marrow mononuclear cells (clonogenic potential) [2]	Substance	cell morphology (THP-1 cells [1])	overall reduction in viability in comparison to the scrambled control peptide (THP-1 cells [3])
	LKDMPGRPNERDKVAlTV (LKDMPGRPNERDKVAITV; not fully specified) [scrambled peptide]	maintained a blast-like morphology	
no inhibitory effects	AGDKDRLIVMENKPTRPV [Peptide P1, AGDKDRLIVMENKPTRPV]		14%
no inhibitory effects	AGDKDRLIVMENKPTHGID [Peptide P2, AGDKDRLIVMENKPTHGID]		28%
